Test results: patent US20230080054A1 (ILDONG PHARMACEUTICAL CO., LTD., priority 2021, published 2023)

Columns and labels:
[1] = target: T1, human ANO6 (Homo sapiens, UniProt Q4KMQ2); test: YFP quenching assay (ANO6 ion channel activity); assay type: cell-based; settings: test compound 1 μM, 10 μM ionomycin, read-out: Inhibition Level 1 μM
T1 construct: expressed in transfected cells
T1 sequence (Q4KMQ2 1-931 isoform Q4KMQ2-2): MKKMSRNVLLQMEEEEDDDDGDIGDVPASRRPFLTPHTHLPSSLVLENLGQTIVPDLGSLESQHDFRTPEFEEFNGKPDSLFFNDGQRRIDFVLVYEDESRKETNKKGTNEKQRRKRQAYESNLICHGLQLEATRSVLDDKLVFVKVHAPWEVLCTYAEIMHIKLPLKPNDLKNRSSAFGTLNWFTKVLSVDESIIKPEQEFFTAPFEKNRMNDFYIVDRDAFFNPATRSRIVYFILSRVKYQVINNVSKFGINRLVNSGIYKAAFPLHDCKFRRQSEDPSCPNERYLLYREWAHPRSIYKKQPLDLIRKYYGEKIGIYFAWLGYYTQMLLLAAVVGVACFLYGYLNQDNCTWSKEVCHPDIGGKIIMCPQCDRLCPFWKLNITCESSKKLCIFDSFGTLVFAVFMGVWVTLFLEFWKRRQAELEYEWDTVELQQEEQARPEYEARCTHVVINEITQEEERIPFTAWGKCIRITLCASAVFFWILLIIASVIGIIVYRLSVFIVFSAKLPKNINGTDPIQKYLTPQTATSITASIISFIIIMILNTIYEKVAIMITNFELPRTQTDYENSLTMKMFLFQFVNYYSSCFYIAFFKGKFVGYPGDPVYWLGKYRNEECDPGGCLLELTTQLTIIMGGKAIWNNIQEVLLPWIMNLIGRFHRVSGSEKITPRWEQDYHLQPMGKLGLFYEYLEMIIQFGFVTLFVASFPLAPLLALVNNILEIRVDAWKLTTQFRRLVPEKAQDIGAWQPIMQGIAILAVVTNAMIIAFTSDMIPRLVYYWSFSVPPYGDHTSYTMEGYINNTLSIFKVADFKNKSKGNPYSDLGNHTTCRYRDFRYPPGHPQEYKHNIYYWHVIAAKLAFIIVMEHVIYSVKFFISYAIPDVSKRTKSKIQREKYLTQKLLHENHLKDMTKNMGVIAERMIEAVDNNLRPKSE
In short: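 FRT cells stably expressing human ANO6 and YFP-H148Q/I152L/F46L, preincubated 10 min at 40° C with compounds (1% DMSO) in PBS. Quench read every 0.4 s after injecting 140 mM SCN- with 10 μM ionomycin; % inhibition from the 3.6–7.6 s fluorescence difference, normalised to no-ionomycin (100%) and ionomycin-only (0%) wells, duplicate or triplicate.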

[2] = target: T1, human ANO6; test: LACT C2 assay (phosphatidylserine scramblase function assay); assay type: cell-based; settings: FRT cells expressing human ANO6, 10 μM ionomycin; for inhibition at 0.1 µM: test compound 100 nM, read-out: Inhibition Level 100 nM; for inhibition at 1 µM: test compound 1 μM, read-out: Inhibition Level 1 μM
In short: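 Inhibition was normalised between ionomycin-only (0%) and untreated (100%) wells, with triplicates averaged. Readout was background-corrected Lact-C2-GFP (500 nM) fluorescence from imaged cells. The cells were FRT cells stably expressing human ANO6, given compound at 1% DMSO for 10 min before a 10 min 10 μM ionomycin challenge.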

O=C(Nc1cccc(F)c1)c1cccc(Nc2ccc(-c3cccc(F)c3)cn2)c1 [Compound 122, N-(3-fluorophenyl)-3-{[5-(3-fluorophenyl)pyridin-2-yl]amino}benzamide]
≥ 60%: inhibition at 1 µM [1] | inhibition at 0.1 µM [2] | inhibition at 1 µM [2]

O=C(NCCC1CCCCC1)c1cccc(Nc2ncc(-c3cccc(F)c3)cn2)c1 [Compound 80, N-(2-cyclohexylethyl)-3-{[5-(3-fluorophenyl)pyrimidin-2-yl]amino}benzamide]
≥ 60%: inhibition at 1 µM [1] | inhibition at 0.1 µM [2] | inhibition at 1 µM [2]

O=C(N[C@@H]1C[C@H]1c1ccccc1)c1cccc(Nc2ccc(-c3ccccc3)nn2)c1 [Compound 68, N-[(1R,2S)-2-phenylcyclopropyl]-3-[(6-phenylpyridazin-3-yl)amino]benzamide]
≥ 60%: inhibition at 1 µM [1] | inhibition at 0.1 µM [2] | inhibition at 1 µM [2]

O=C(NCCc1cccc(C(F)(F)F)c1)c1cccc(Nc2ncc(-c3cccc(F)c3)cn2)c1 [Compound 79, 3-{[5-(3-fluorophenyl)pyrimidin-2-yl]amino}-N-{2-[3-(trifluoromethyl)phenyl]ethyl}benzamide]
≥ 60%: inhibition at 1 µM [1] | inhibition at 0.1 µM [2] | inhibition at 1 µM [2]

O=C(Nc1ccc(Cl)c(Cl)c1)c1cccc(Nc2ncc(-c3cccc(F)c3)cn2)c1 [Compound 118, N-(3,4-dichlorophenyl)-3-{[5-(3-fluorophenyl)pyrimidin-2-yl]amino}benzamide]
≥ 60%: inhibition at 1 µM [1] | inhibition at 0.1 µM [2] | inhibition at 1 µM [2]

O=C(N[C@@H]1C[C@H]1c1ccccc1)c1cccc(Nc2ncc(-c3cccc(F)c3)cn2)c1 [Compound 119, 3-{[5-(3-fluorophenyl)pyrimidin-2-yl]amino}-N-[(1R,2S)-2-phenylcyclopropyl]benzamide]
≥ 60%: inhibition at 1 µM [1] | inhibition at 0.1 µM [2] | inhibition at 1 µM [2]

O=C(N[C@@H]1C[C@H]1c1ccccc1)c1cccc(Nc2ccc(-c3cccc(F)c3)cn2)c1 [Compound 123, 3-{[5-(3-fluorophenyl)pyridin-2-yl]amino}-N-[(1R,2S)-2-phenylcyclopropyl]benzamide]
≥ 60%: inhibition at 1 µM [1] | inhibition at 0.1 µM [2] | inhibition at 1 µM [2]
